{
  "source": "patent US20170022258A1",
  "about": "“PEPTIDES FOR USE IN THE TREATMENT OF IL-1 RELATED DISEASES AND CONDITIONS” (C4M PHARMACEUTICALS PTY LTD., priority 2011, published 2017)",
  "note": "Non-standard residues stand in square brackets, D forms with d. Residues, ends and D or L forms follow the SMILES beside them.",
  "data": [
    {"test_system": "IL-1 stimulation of IL-8 in human skin fibroblasts", "experiment": "Inhibition of IL-1 induced IL-8 in human fibroblasts", "type": "cell-based", "settings": "inhibition of IL-1 stimulation of IL-8 in human skin fibroblasts; average of three measurements and standard error; read-out: Binding (IC50 nM)", "procedure": "Inhibition of IL-1 induced IL-8 in human fibroblasts was determined using normal human dermal fibroblast cells cultured in DMEM with 10% fetal calf serum in 48-well plates.\nTwenty-four hours before initiation of the experiment, the medium was changed to DMEM with 0.2% fetal calf serum. Each peptide was added to confluent cells, which were then pulsed for 30 min with rIL-I,B (which was obtained from R & D Systems) at 50 pg/ml. The cells were washed four times with PBS, and fresh DMEM/0.2% fetal calf serum was added to each well. After 5 hr of incubation, the culture media were collected and analyzed by ELISA for IL-8 (which was obtained from R & D Systems). Maximal activation, with IL-1 only, was 2530±13 pg/ml of IL-8. Nonspecific activation, determined in the presence of 1000-fold excess IL-1Ra, was 30±9 pg/ml of IL-8 (n=3).", "units": {"IC50": "nM"}, "values": [
      {"smiles": "CC(=O)N[C@H](C(=O)N[C@@H](C)C(=O)N[C@@H](CC(N)=O)C(=O)N[C@H](C(=O)N[C@@H](CO)C(=O)N[C@@H](CO)C(=O)N[C@@H](Cc1ccccc1)C(=O)N[C@@H](CCC(=O)O)C(=O)N[C@@H](Cc1c[nH]c2ccccc12)C(=O)N[C@H](C(=O)N1CCC[C@H]1C(=O)NCC(=O)N[C@@H](Cc1ccc(O)cc1)C(=O)N[C@@H](Cc1c[nH]c2ccccc12)C(=O)N[C@@H](CCC(N)=O)C(=O)N1CCC[C@H]1C(=O)N[C@@H](Cc1ccc(O)cc1)C(=O)N[C@@H](C)C(=O)N[C@@H](CC(C)C)C(=O)N1CCC[C@H]1C(=O)N[C@@H](CC(C)C)C(=O)O)[C@@H](C)O)C(C)C)[C@@H](C)O", "note": "[SEQ ID NO. 17] (Ac-TANVSSFEWTPGYWQPYALPL-OH; C-terminus assumed)", "IC50": 76},
      {"smiles": "CC(=O)N[C@@H](CC(=O)O)C(=O)NCC(=O)N[C@@H](Cc1ccc(O)cc1)C(=O)N[C@@H](CC(=O)O)C(=O)N[C@@H](CCCNC(=N)N)C(=O)N[C@@H](Cc1c[nH]c2ccccc12)C(=O)N[C@@H](CCCNC(=N)N)C(=O)N[C@@H](CCC(N)=O)C(=O)N[C@@H](CO)C(=O)NCC(=O)N[C@@H](CCC(=O)O)C(=O)N[C@@H](CCCNC(=N)N)C(=O)N[C@@H](Cc1ccc(O)cc1)C(=O)N[C@@H](Cc1c[nH]c2ccccc12)C(=O)N[C@@H](CCC(N)=O)C(=O)N1CCC[C@H]1C(=O)N[C@@H](Cc1ccc(O)cc1)C(=O)N[C@@H](C)C(=O)N[C@@H](CC(C)C)C(=O)N1CCC[C@H]1C(=O)N[C@@H](CC(C)C)C(=O)O", "note": "[SEQ ID NO. 20] (Ac-DGYDRWRQSGERYWQPYALPL-OH; C-terminus assumed)", "IC50": 19},
      {"smiles": "CC(=O)N[C@@H](Cc1ccccc1)C(=O)N[C@H](C(=O)N[C@@H](Cc1c[nH]c2ccccc12)C(=O)N[C@@H](CCC(=O)O)C(=O)N[C@@H](CCC(=O)O)C(=O)N[C@@H](CO)C(=O)N[C@@H](CC(N)=O)C(=O)N[C@@H](C)C(=O)N[C@@H](Cc1ccc(O)cc1)C(=O)N[C@@H](Cc1ccc(O)cc1)C(=O)N[C@@H](Cc1c[nH]c2ccccc12)C(=O)N[C@@H](CCC(N)=O)C(=O)N1CCC[C@H]1C(=O)N[C@@H](Cc1ccc(O)cc1)C(=O)N[C@@H](C)C(=O)N[C@@H](CC(C)C)C(=O)N1CCC[C@H]1C(=O)N[C@@H](CC(C)C)C(=O)O)[C@@H](C)O", "note": "[SEQ ID NO. 15, Ac-FTWEESNAYYWQPYALPL] (Ac-FTWEESNAYYWQPYALPL-OH; C-terminus assumed)", "IC50": 16},
      {"smiles": "CC(=O)N[C@H](CC(C)C)C(=O)N1CCC[C@@H]1C(=O)N[C@H](CC(C)C)C(=O)N[C@H](C)C(=O)N[C@H](Cc1ccc(O)cc1)C(=O)N1CCC[C@@H]1C(=O)N[C@H](CCC(N)=O)C(=O)N[C@H](Cc1c[nH]c2ccccc12)C(=O)N[C@H](Cc1ccc(O)cc1)C(=O)N[C@H](CCCNC(=N)N)C(=O)N[C@H](CCC(=O)O)C(=O)NCC(=O)N[C@H](CO)C(=O)N[C@H](CCC(N)=O)C(=O)N[C@H](CCCNC(=N)N)C(=O)N[C@H](Cc1c[nH]c2ccccc12)C(=O)N[C@H](CCCNC(=N)N)C(=O)N[C@H](CC(=O)O)C(=O)N[C@H](Cc1ccc(O)cc1)C(=O)NCC(=O)N[C@H](CC(=O)O)C(=O)O", "note": "[SEQ ID NO. 21] (Ac-[dL][dP][dL][dA][dY][dP][dQ][dW][dY][dR][dE]G[dS][dQ][dR][dW][dR][dD][dY]G[dD]-OH; C-terminus assumed)", "IC50": 730},
      {"smiles": "CC(=O)N[C@H](CC(C)C)C(=O)N1CCC[C@@H]1C(=O)N[C@H](CC(C)C)C(=O)N[C@H](C)C(=O)N[C@H](Cc1ccc(O)cc1)C(=O)N1CCC[C@@H]1C(=O)N[C@H](CCC(N)=O)C(=O)N[C@H](Cc1c[nH]c2ccccc12)C(=O)N[C@H](Cc1ccc(O)cc1)C(=O)NCC(=O)N1CCC[C@@H]1C(=O)N[C@@H](C(=O)N[C@H](Cc1c[nH]c2ccccc12)C(=O)N[C@H](CCC(=O)O)C(=O)N[C@H](Cc1ccccc1)C(=O)N[C@H](CO)C(=O)N[C@H](CO)C(=O)N[C@@H](C(=O)N[C@H](CC(N)=O)C(=O)N[C@H](C)C(=O)N[C@@H](C(=O)O)[C@H](C)O)C(C)C)[C@H](C)O", "note": "[SEQ ID NO. 18]", "IC50": 810}
    ]}
  ]
}
